Measured values published in US8722670B2, “Selective NR2B antagonists” (Bristol-Myers Squibb Company, priority 2011, dated 2014).
Like-named read-outs stand apart in the source and are kept apart here.

Molecular target: T1, hNR2B (Homo sapiens, UniProt Q05586+Q13224)
T1 construct: expressed in transfected cells; host or cells: Xenopus laevis oocytes, cRNA-injected
Experiment: Electrophysiology NMDA receptor experiments: two electrode voltage-clamp in Xenopus laevis oocytes, hNR2B IC50
Type: cell-based
Details: 50 μM glutamate, 30 μM glycine

[1] = hNR2B activity class, read-out: Activity
[2] = voltage clamp -40 mV, read-out: hNR2B IC50

T1 sequence (Q13224 27-1484, other chains not shown): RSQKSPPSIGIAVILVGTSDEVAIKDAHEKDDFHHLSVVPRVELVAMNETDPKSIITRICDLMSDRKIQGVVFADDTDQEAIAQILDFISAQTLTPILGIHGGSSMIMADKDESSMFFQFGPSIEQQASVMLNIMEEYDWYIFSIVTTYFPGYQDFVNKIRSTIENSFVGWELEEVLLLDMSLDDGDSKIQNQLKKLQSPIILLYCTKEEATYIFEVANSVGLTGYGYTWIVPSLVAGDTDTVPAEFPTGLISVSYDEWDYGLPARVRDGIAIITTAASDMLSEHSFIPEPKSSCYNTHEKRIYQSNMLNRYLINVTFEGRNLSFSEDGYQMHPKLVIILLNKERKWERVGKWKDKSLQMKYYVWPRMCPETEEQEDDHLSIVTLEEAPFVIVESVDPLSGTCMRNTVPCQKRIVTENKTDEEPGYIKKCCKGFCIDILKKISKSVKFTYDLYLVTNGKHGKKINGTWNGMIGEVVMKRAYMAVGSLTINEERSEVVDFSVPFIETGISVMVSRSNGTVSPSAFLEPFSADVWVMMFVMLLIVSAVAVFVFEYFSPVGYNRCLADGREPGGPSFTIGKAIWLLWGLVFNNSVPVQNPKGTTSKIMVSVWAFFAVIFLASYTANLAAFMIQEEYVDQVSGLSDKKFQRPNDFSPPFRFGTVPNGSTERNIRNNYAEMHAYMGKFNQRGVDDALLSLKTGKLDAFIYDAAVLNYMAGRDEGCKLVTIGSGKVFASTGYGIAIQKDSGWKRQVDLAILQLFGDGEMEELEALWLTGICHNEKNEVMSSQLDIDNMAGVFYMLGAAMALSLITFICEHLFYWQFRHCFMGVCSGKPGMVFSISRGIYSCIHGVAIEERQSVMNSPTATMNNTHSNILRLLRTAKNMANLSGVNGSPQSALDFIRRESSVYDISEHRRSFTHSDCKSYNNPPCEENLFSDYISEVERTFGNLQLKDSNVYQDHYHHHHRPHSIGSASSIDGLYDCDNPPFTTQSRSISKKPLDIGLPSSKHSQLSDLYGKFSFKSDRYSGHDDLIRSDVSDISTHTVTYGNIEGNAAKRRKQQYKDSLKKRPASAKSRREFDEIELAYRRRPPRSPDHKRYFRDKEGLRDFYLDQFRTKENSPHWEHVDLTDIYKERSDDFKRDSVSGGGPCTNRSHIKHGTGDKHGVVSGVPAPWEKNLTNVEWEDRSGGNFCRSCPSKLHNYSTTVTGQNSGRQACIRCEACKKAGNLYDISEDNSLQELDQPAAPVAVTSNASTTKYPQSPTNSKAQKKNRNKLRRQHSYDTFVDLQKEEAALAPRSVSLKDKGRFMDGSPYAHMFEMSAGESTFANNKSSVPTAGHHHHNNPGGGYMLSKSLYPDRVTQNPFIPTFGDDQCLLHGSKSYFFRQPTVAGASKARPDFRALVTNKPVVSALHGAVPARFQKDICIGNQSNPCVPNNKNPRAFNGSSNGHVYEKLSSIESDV

IC50 [1] [nM] | IC50 [2] [nM] | SMILES
< 200 |  | COc1ccc(Nc2cc(COc3ccc4[nH]c(=O)ccc4c3)on2)cc1Cl [Example 261]
1000 to 10000 |  | CCc1ccc(Nc2cc(COc3ccc4[nH]ncc4c3)on2)cc1 [Example 273]
< 200 |  | FC(F)Oc1ccc(Nc2noc(CCNc3ncnc4[nH]ncc34)n2)cc1Cl [Example 207]
< 200 |  | O=c1ccc2cc(OCc3nnc(Nc4ccc(Cl)cc4)s3)ccc2[nH]1 [Example 244]
1000 to 10000 |  | CC1(C)Cc2cc(OCc3nnc(Nc4ccc(Cl)c(F)c4)o3)ccc2NC1=O [Example 83]
 | 193 | O=c1ccc2cc(OCc3cc(Nc4ccc(Cl)c(Cl)c4)no3)ccc2[nH]1 [Example 254]
 | 2400 | O=c1ccc2cc(OCc3nnc(Cc4ccc(Cl)c(Cl)c4)o3)ccc2[nH]1 [Example 289, 6-((5-(3,4-dichlorobenzyl)-1,3,4-oxadiazol-2-yl)methoxy)quinolin-2(1H)-one]
> 10000 |  | O=c1ccc2cc(OCc3nnc(Nc4ccc(Cl)cc4Cl)o3)ccc2[nH]1 [Example 56]
 | 2120 | CCOC(=O)Nc1ccc(OCc2nnc(NCc3ccc(Cl)c(Cl)c3)o2)cc1 [Example 32]
< 200 |  | O=c1ccc2cc(OCc3cc(Nc4ccc(OC(F)F)c(Cl)c4)no3)ccc2[nH]1 [Example 255]
> 10000 |  | O=c1ccc2cc(OCc3nnc(Nc4cc(Cl)ccc4Cl)o3)ccc2[nH]1 [Example 57]
201 to 1000 |  | Cc1cc(Nc2nnc(COc3ccc4[nH]c(=O)ccc4c3)o2)ccc1F [Example 90]
> 10000 |  | CC1(C)Cc2cc(OCc3nnc(NCc4ccc(Cl)c(Cl)c4)o3)ccc2NC1=O [Example 84]
201 to 1000 |  | Cc1cc(Nc2noc(C3CC3c3ccc4[nH]ncc4c3)n2)ccc1OC(F)F (stereo not shown) [Example 236]
< 200 |  | O=C1CCc2cc(CCc3nnc(NCc4ccc(Cl)c(Cl)c4)o3)ccc2N1 [Example 132]
> 10000 |  | CCOC(=O)Nc1ccc(OCc2nnc(Nc3ccc(Cl)c(Cl)c3)o2)cc1 [Example 31]
> 10000 |  | Oc1ccc(OCc2nnc(NCc3ccc(Cl)c(Cl)c3)o2)nn1 [Example 117]
 | 476 | O=C1CCc2cc(OCc3nnc(NCc4ccc(Cl)cc4)o3)ccc2N1 [Example 20]
1000 to 10000 |  | Oc1ccc(OCc2nc(Nc3ccc(Cl)c(Cl)c3)no2)cc1 [Example 184]
 | 11 | O=c1ccc2cc(CCc3nc(Nc4ccc(OC(F)F)c(Cl)c4)no3)ccc2[nH]1 [Example 208]
1000 to 10000 |  | O=c1ccc2cc(OCc3nnc(NCc4c(Cl)cccc4Cl)o3)ccc2[nH]1 [Example 70]
< 200 |  | O=c1ccc2cc(OCc3nnc(Nc4ccc(OC(F)(F)F)c(Cl)c4)o3)ccc2[nH]1 [Example 74]
< 200 |  | O=c1ccc2cc(C3CC3c3nnc(Nc4ccc(OC(F)F)c(Cl)c4)o3)ccc2[nH]1 (stereo not shown) [Example 155]
1000 to 10000 |  | COc1ccc(Nc2noc(CCc3ccc4[nH]ncc4c3)n2)cc1C [Example 213]
201 to 1000 |  | O=C1CCc2cc(OCc3nnc(Nc4ccc(Cl)cc4)s3)ccc2N1 [Example 250]
 | 4680 | FC(F)Oc1ccc(Nc2nnc(CCc3ccc4[nH]nc(C(F)(F)F)c4c3)o2)cc1Cl [Example 142]

More lines, now with the values behind:

SMILES | IC50 [1] [nM] | IC50 [2] [nM]
O=C1Cc2cc(OCc3nnc(Nc4ccc(Cl)c(Cl)c4)o3)ccc2N1 [Example 8] | < 200 | 
O=c1ccc2cc(OCc3nnc(Nc4ccc(C(F)(F)F)cc4)o3)ccc2[nH]1 [Example 11] |  | 55
Cn1c(COc2ccc3[nH]c(=O)ccc3c2)nnc1Nc1ccc(OC(F)(F)F)cc1 [Example 279] | < 200 | 
O=C1CCc2cc(OCc3nc(Nc4ccc(Cl)cc4)no3)ccc2N1 [Example 182] | 1000 to 10000 | 
O=c1ccc2cc(OCc3cc(Nc4ccc(C(F)(F)F)c(Cl)c4)no3)ccc2[nH]1 [Example 269] | < 200 | 
O=c1ccc2cc(OCc3cc(Nc4ccc(Cl)c(F)c4)no3)ccc2[nH]1 [Example 257] |  | 10
Cc1cc(CNc2nnc(COc3ccc4[nH]c(=O)ccc4c3)o2)ccc1F [Example 86] | 201 to 1000 | 
O=C1CCc2cc(OCc3nnc(Nc4ccc(Cl)cc4)[nH]3)ccc2N1 [Example 283] | 201 to 1000 | 
Oc1ccc(CCc2nc(Nc3ccc(C(F)(F)F)cc3)no2)cc1 [Example 223] | 201 to 1000 | 
O=c1ccc2cc(OCc3nnc(NCc4ccc(Cl)cc4F)o3)ccc2[nH]1 [Example 67] | 201 to 1000 | 
O=c1ccc2cc(OCc3nnc(Nc4ccc(Cl)c(OC(F)(F)F)c4)o3)ccc2[nH]1 [Example 55] |  | 542
O=C1CCc2cc(OCc3nnc(NCc4ccc(OC(F)F)cc4)o3)ccc2N1 [Example 28] | < 200 | 
O=c1cnc2cc(OCc3nnc(Nc4ccc(Cl)c(Cl)c4)o3)ccc2[nH]1 [Example 123] | 1000 to 10000 | 
Clc1ccc(CNc2nnc(COc3ccc4c(c3)CCCN4)o2)cc1Cl [Example 120] | > 10000 | 
O=c1ccc2cc(OCc3nnc(NCc4ccc(C(F)(F)F)cc4)o3)ccc2[nH]1 [Example 76] | < 200 | 
Cc1cc(Nc2noc(CCc3ccc4[nH]ncc4c3)n2)ccc1OC(F)F [Example 214] | 201 to 1000 | 
Oc1ccc(CCc2nc(NCc3ccc(Cl)cc3)no2)cc1 [Example 200] |  | 320
CC(Oc1ccc2[nH]c(=O)ccc2c1)c1nnc(Nc2ccc(Cl)c(Cl)c2)o1 (stereo not shown) [Example 106] | < 200 | 

SMILES | IC50 [1] [nM] | IC50 [2] [nM]
Oc1ccc(CCc2nnc(Nc3ccc(OC(F)(F)F)cc3)o2)cc1 [Example 153] | < 200 | 
Fc1cc(Nc2noc(CCc3cccc4[nH]ncc34)n2)ccc1Cl [Example 228] | 1000 to 10000 | 
O=c1ccc2cc(OCc3nnc(Nc4ccc(OC(F)F)c(Cl)c4)o3)ccc2[nH]1 [Example 87] | < 200 | 
Oc1ccc(CCc2nc(Nc3ccc(OC(F)(F)F)cc3)no2)cc1 [Example 224] | 201 to 1000 | 
Fc1cc(Nc2noc(CCc3ccc4[nH]ncc4c3)n2)ccc1OC(F)F [Example 210] | < 200 | 
Oc1ccc(CCc2nnc(Nc3ccc(C(F)(F)F)cc3)o2)cc1 [Example 152] |  | 48
O=c1ccc2cc(CCc3nnc(Nc4ccc(C(F)(F)F)cc4)o3)ccc2[nH]1 [Example 138] | < 200 | 
O=c1ccc2cc(CCc3nnc(Nc4ccc(Cl)c(Cl)c4)o3)ccc2[nH]1 [Example 136] | < 200 | 
O=c1ccc2cc(OCc3nnc(Nc4ccc(OC(F)(F)F)cc4)o3)ccc2[nH]1 [Example 13] | < 200 | 
O=C1CCc2cc(OCCCc3noc(-c4ccc(Cl)cc4)n3)ccc2N1 [Example 288, 6-(3-(5-(4-chlorophenyl)-1,2,4-oxadiazol-3-yl)propoxy)-3,4-dihydroquinolin-2(1H)-one] |  | > 10000
Cc1ccc(Nc2noc(COc3ccc4[nH]c(=O)ccc4c3)n2)cc1 [Example 165] | 1000 to 10000 | 
O=c1ccc2cc(OCc3nnc(Nc4ccc(OC(F)F)cc4)o3)ccc2[nH]1 [Example 17] |  | 80
FC(F)(F)c1n[nH]c2ccc(CCc3nnc(Nc4ccc(Cl)c(Cl)c4)o3)cc12 [Example 143] | > 10000 | 
CS(=O)(=O)Nc1ccc(OCc2nnc(NCc3ccc(Cl)c(Cl)c3)o2)cc1 [Example 30] |  | 19
O=c1ccc2cc(OCc3nnc(Nc4ccc(Cl)c(OC(F)F)c4)o3)ccc2[nH]1 [Example 88] | < 200 | 
O=C1CCc2cc(OCc3nnc(NCc4ccc(Cl)c(Cl)c4)s3)ccc2N1 [Example 248] | 201 to 1000 | 
FC(F)Oc1ccc(Nc2noc(CCc3ccc4cn[nH]c4c3)n2)cc1Cl [Example 230] | < 200 | 
